Measured values: patent publication US8008260B2, “Methods of protecting against apoptosis using lipopeptides” (Cleveland Clinic Foundation, priority 2005, dated 2011)
Peptide text beside a SMILES is read from it. * marks the point of attachment. Propyl(2R-PamO,3-PamO) = CCCCCCCCCCCCCCCC(=O)OC[C@H](C*)OC(=O)CCCCCCCCCCCCCCC; X1 = CCCCCCCCCCCCCCCC(=O)OCC(C*)OC(=O)CCCCCCCCCCCCCCC

Tests used:
TLR2/TLR6 heterodimer = target: T1, TLR2/TLR6 heterodimer (Homo sapiens, UniProt O60603+Q9Y2C9); test: NF-κB-dependent reporter activity in 293 cells expressing the TLR2/TLR6 heterodimer; format: cell-based; set-up: NF-κB activation: scale not given here; conditions: for activation of the NF-κB reporter (in words, compared with CBLB601): 293 cells expressing TLR2/TLR6, various doses; for NF-κB activation: in vitro activity, 293 cells expressing TLR2/TLR6
T1 construct: expressed in transfected cells; host or cells: 293 cells
T1 sequence (O60603 21-784): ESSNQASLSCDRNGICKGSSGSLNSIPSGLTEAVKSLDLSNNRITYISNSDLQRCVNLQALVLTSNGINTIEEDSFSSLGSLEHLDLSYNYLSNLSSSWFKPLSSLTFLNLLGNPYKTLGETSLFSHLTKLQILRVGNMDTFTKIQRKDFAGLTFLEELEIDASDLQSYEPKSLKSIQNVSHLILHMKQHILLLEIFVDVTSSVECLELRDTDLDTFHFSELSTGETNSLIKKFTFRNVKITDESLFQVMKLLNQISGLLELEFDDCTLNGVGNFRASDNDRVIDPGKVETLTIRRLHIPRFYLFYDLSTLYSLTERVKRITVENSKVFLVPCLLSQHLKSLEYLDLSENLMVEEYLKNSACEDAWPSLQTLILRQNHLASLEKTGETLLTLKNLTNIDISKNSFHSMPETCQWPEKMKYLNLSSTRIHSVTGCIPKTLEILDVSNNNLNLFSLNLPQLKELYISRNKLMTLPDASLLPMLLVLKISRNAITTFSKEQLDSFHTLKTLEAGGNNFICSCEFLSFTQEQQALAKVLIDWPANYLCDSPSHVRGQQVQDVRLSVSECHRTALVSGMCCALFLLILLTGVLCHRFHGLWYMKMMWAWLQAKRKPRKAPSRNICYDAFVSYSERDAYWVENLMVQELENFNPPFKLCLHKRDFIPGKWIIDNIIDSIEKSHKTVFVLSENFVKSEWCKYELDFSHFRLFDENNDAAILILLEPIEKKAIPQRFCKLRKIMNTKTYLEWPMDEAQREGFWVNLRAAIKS
T1 sequence (Q9Y2C9 32-796): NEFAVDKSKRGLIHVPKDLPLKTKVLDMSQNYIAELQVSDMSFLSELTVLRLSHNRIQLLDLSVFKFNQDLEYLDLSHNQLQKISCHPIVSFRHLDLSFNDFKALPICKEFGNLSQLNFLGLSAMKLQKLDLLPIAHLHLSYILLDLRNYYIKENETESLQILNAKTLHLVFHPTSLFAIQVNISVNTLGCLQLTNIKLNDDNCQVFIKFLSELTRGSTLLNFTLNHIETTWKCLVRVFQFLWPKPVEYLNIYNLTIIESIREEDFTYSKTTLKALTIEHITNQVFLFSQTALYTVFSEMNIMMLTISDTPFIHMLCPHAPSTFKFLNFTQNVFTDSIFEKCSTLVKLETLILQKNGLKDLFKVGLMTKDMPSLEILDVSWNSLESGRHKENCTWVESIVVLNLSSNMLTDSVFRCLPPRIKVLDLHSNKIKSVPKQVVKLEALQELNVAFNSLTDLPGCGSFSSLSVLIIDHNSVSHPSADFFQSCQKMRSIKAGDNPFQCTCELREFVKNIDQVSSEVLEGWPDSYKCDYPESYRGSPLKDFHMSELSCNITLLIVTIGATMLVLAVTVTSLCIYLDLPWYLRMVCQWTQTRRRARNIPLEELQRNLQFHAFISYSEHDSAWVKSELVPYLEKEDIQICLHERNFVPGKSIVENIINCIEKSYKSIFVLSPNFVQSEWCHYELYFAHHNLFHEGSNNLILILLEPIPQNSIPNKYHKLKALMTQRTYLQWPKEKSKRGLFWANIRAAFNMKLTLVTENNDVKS
Protocol: NF-κB-dependent reporter activity was measured in 293 cells that expressed the TLR2/YLR6 heterodimer. […] None of the non-palmitoylated corresponding peptides activated the NF-κB reporter (FIG. 18B). The peptide component of CBLB617 has a (−4) charge, which should prevent it from interacting with negatively charged cell surface markers. […] Table 5 summarizes the in vitro activity and solubility of all the compounds.

ICR mice = test: Radioprotection against total body gamma irradiation (TBI), 30-day survival; format: in vivo; conditions: for toxicity in combination with radiation: i.m. 24 hours before 10 Gy TBI; for rank of radioprotective potency: i.m. 24 hrs before 10 Gy TBI
Text: CBLB601, a R-Pam2-lipopeptide with the peptide moiety consisting of C-SKKKK (SEQ ID NO: 8), was selected for more detailed characterization as a radioprotector based upon its ability to activate NF-κB and preliminary in vivo data on radioprotection in NIH-SWISS mice (see Example 2). The objectives of this study were to determine the optimal dose, route of administration, and time of administration of CBLB601 to serve as a protector. ICR female mice of 10-15 weeks of age were used, with 10-15 animals per group or condition.
The optimal intraperitoneal administration schedule of CBLB601 was determined by injecting the compound at different times prior to irradiation. […] Therefore, all of the optimization experiments were performed with 10 Gy of total body irradiation (TBI). A dose of 3 μg of BCLB601/mouse (1/10 NOAEL) was chosen as the starting dose. Thus, 3 μg of CBLB601 was injected i.p. into ICR mice at 0.5 h, 1 h, 6 h, and 24 h or 1 h, 24 h, 48 h, 72 h, 96 h prior to 10 Gy of TBI (as described in Example 1). […] Injection of CBLB601 24 hrs before irradiation clearly yielded the best radioprotection (90-100% 30-day survival). When the compound was administered 48 hrs before irradiation, the radioprotection was ˜30%. Administration of CBLB601 at 1 hr prior to irradiation produced inconsistent results ranging from 80% protection in one experiment (FIG. 5B) to almost no protection (20%) in another experiment (FIG. 5A).
To determine the optimal radioprotective dose of CBLB601, the timing of injection and level of irradiation were kept constant, while the dose of CBLB601 was varied. ICR mice were injected i.p. with 1, 3, 10, 20, or 30 μg of CBLB601/mouse or 0.1, 0.3, 1, 3, 10, or […] 24 hrs prior to irradiation (10 Gy of TBI), and their survival was monitored for 30 days. The best protective dose was 3 μg/mouse, which supported a survival of 100% (FIGS. 6 A and B). […] Thus, the optimal protective dose of CBLB601 was determined to be 3 μg/mouse.
To determine the level of radiation that was protected by CBLB601, radioprotectant-treated and control mice were exposed to increasing levels of TBI. Groups of ICR mice were injected i.p. with either 3 μg CBLB601/mouse or PBS, and then 24 h later they received 10, 11, 12, 13, 14, and 15 Gy doses of TBI. Survival was recorded over 30 days. […] All of the mice irradiated with 10-11 Gy of TBI died between days 12-14 post irradiation, which was typical for death due to hematopoietic failure. All of the mice that received 14-15 Gy of TBI died between days 7-9 post irradiation, which was typical for mortality due to radiation-induced intestinal damage. Mice that were irradiated with 12-13 Gy of TBI died at intermediate times, which was typical for a mixed etiology of radiation-induced mortality. […] To reach a statistically significant 10% difference between control and CBLB601-treated mice, experimental groups of at least 50 mice must be used. Although CBLB601 rescued 100% of mice from 10 Gy of TBI, its protection at 11 Gy of TBI was only 20%. […] This may be indicative of a combined toxicity of the drug and the irradiation.
CBLB601 was administered intramuscularly to determine the optimal route of administration of this compound (especially since this would be the preferred route of administration for humans). […] In another experiment, increasing doses of CBLB601 administered i.m. were tested against 10, 11, and 12 Gy doses of […] (FIG. 9). […] A summary of the dose-dependency of the radioprotection of […] administered i.p. or i.m. 24 h prior to 10 Gy of TBI is shown in FIG. 10.
The optimal schedule of intramuscular administration of CBLB601 was determined by varying the time between drug delivery and irradiation. ICR mice were injected i.m. with 3 μg of CBLB601/mouse 24 h, 6 h, 3 h, and 1 h prior to TBI and +1 h, +3 h after TBI (FIG. 12A), as well as 48 h, 36 h, 24 h, 12 h, and 6 h prior to TBI (FIG. 12B). […]

[1] = Solubility of the lipopeptides

Structure (SMILES) | activation of the NF-κB reporter (in words, compared with CBLB601) (TLR2/TLR6 heterodimer) | NF-κB activation (TLR2/TLR6 heterodimer) | Solubility [1] | further results
CCCCCCCCCCCCCCCC(=O)OC[C@H](CSC[C@H](N)C(=O)NCC(=O)N[C@@H](CCC(=O)O)C(=O)N[C@@H](CCC(=O)O)C(=O)N[C@@H](CC(=O)O)C(=O)N[C@@H](CC(=O)O)C(=O)O)OC(=O)CCCCCCCCCCCCCCC [CBLB617] (H-C(Propyl(2R-PamO,3-PamO))GEEDD-OH) | comparable to that of CBLB601 | 100 | Soluble | survival (ICR mice; after 13 days, doses of 10-87.5 μg/mouse respectively, 10 Gy TBI): 7-90%; visible toxicity (ICR mice; after 13 days, highest dose 87.5 μg/mouse, 10 Gy TBI): no visible toxicity
CCCCCCCCCCCCCCCC(=O)OCC(CSC[C@H](N)C(=O)NCC(=O)N[C@@H](CO)C(=O)N[C@@H](Cc1c[nH]cn1)C(=O)N[C@@H](Cc1c[nH]cn1)C(=O)N[C@@H](CCSC)C(=O)O)OC(=O)CCCCCCCCCCCCCCC (stereo partly shown) [CBLB604] (H-C(X1)GSHHM-OH) |  | 0 | Poor | 
CCCCCCCCCCCCCCCC(=O)OCC(CSC[C@H](N)C(=O)N[C@@H](Cc1ccccc1)C(=O)N[C@@H](CCC(=O)O)C(=O)N1CCC[C@H]1C(=O)N1CCC[C@H]1C(=O)N1CCC[C@H]1C(=O)N[C@@H](C)C(=O)N[C@H](C(=O)N[C@H](C(=O)N[C@H](C(=O)N[C@@H](CCCCN)C(=O)N[C@@H](CO)C(=O)N[C@@H](CCCCN)C(=O)O)[C@@H](C)O)[C@@H](C)O)[C@@H](C)O)OC(=O)CCCCCCCCCCCCCCC (stereo partly shown) [CBLB608] (H-C(X1)FEPPPATTTKSK-OH) |  | 2 | Excellent | 
CCCCCCCCCCCCCCCC(=O)OC[C@H](CSC[C@H](N)C(=O)NCC(=O)N[C@@H](CCC(=O)O)C(=O)N[C@H](C(=O)N[C@@H](CC(=O)O)C(=O)N[C@@H](CCCCN)C(=O)O)[C@@H](C)O)OC(=O)CCCCCCCCCCCCCCC [CBLB613] (H-C(Propyl(2R-PamO,3-PamO))GETDK-OH) | comparable to that of CBLN601 | 200 | Soluble | protection (30-day survival) (ICR mice; doses of 10, 30 and 82.5 μg/mouse i.m. 24 hours before 10 Gy TBI): 100%; toxicity in combination with radiation (ICR mice): non-toxic in combination with the radiation; radioprotector quality compared with CBLB601 (ICR mice; mouse, in vivo): significantly better radioprotectors than CBLB601; therapeutic index (ICR mice; summary of Example 5): ~20
CCCCCCCCCCCCCCCC(=O)OCC(CSC[C@H](N)C(=O)N[C@@H](CO)C(=O)N[C@@H](CCC(N)=O)C(=O)N[C@@H](CCSC)C(=O)N[C@@H](Cc1c[nH]cn1)C(=O)N[C@@H](Cc1c[nH]cn1)C(=O)O)OC(=O)CCCCCCCCCCCCCCC (stereo partly shown) [CBLB605] (H-C(X1)SQMHH-OH) |  | 2 | Poor | 
CCCCCCCCCCCCCCCC(=O)OC[C@H](CSC[C@H](N)C(=O)NCC(=O)N[C@@H](CCC(=O)O)C(=O)N[C@@H](CCC(=O)O)C(=O)N[C@@H](CO)C(=O)N[C@@H](CC(N)=O)C(=O)O)OC(=O)CCCCCCCCCCCCCCC [CBLB615] (H-C(Propyl(2R-PamO,3-PamO))GEESN-OH) | better activators than CBLB601 | 200 | Soluble | toxicity in combination with radiation (ICR mice): no toxicity in combination with radiation; rank of radioprotective potency (ICR mice): CBLB612>CBLB614>CBLB615
CCCCCCCCCCCCCCCC(=O)OCC(CSC[C@H](N)C(=O)NCC(=O)N[C@@H](CCC(N)=O)C(=O)N[C@@H](Cc1c[nH]cn1)C(=O)N[C@@H](Cc1c[nH]cn1)C(=O)N[C@@H](Cc1c[nH]cn1)C(=O)O)OC(=O)CCCCCCCCCCCCCCC (stereo partly shown) [CBLB602] (H-C(X1)GQHHH-OH) |  | 0 | Poor | 
CCCCCCCCCCCCCCCC(=O)OCC(CSC[C@H](N)C(=O)NCC(=O)N[C@@H](CC(=O)O)C(=O)N1CCC[C@H]1C(=O)N[C@@H](CCCCN)C(=O)N[C@@H](Cc1c[nH]cn1)C(=O)N1CCC[C@H]1C(=O)N[C@@H](CCCCN)C(=O)N[C@@H](CO)C(=O)N[C@@H](Cc1ccccc1)C(=O)N[C@H](C(=O)NCC(=O)N[C@@H](Cc1c[nH]c2ccccc12)C(=O)N[C@H](C(=O)N[C@@H](C)C(=O)O)C(C)C)[C@@H](C)O)OC(=O)CCCCCCCCCCCCCCC (stereo partly shown) [CBLB607] (H-C(X1)GDPKHPKSFTGWVA-OH) |  | 2 | Poor | 
CCCCCCCCCCCCCCCC(=O)OCC(CSC[C@H](N)C(=O)NCC(=O)N[C@@H](CCC(N)=O)C(=O)N[C@@H](Cc1c[nH]cn1)C(=O)N[C@@H](Cc1c[nH]cn1)C(=O)N[C@@H](CCSC)C(=O)O)OC(=O)CCCCCCCCCCCCCCC (stereo partly shown) [CBLB603] (H-C(X1)GQHHM-OH) |  | 0 | Poor | 
CCCCCCCCCCCCCCCC(=O)OC[C@H](CSC[C@H](N)C(=O)N[C@@H](CCC(N)=O)C(=O)NCC(=O)N[C@@H](CCC(=O)O)C(=O)N[C@@H](CCC(=O)O)C(=O)N[C@@H](CO)C(=O)N[C@@H](CC(N)=O)C(=O)N[C@@H](CC(=O)O)C(=O)N[C@@H](CCCCN)C(=O)O)OC(=O)CCCCCCCCCCCCCCC [CBLB614] (H-C(Propyl(2R-PamO,3-PamO))QGEESNDK-OH) | better activators than CBLB601 | 200 | Soluble | toxicity in combination with radiation (ICR mice): no toxicity in combination with radiation; rank of radioprotective potency (ICR mice): CBLB612>CBLB614>CBLB615
CCCCCCCCCCCCCCCC(=O)OC[C@H](CSC[C@H](N)C(=O)NCC(=O)N[C@@H](CC(=O)O)C(=O)N1CCC[C@H]1C(=O)N[C@@H](CCCCN)C(=O)N[C@@H](Cc1c[nH]cn1)C(=O)N1CCC[C@H]1C(=O)N[C@@H](CCCCN)C(=O)N[C@@H](CO)C(=O)N[C@@H](Cc1ccccc1)C(=O)O)OC(=O)CCCCCCCCCCCCCCC [CBLB606] (H-C(Propyl(2R-PamO,3-PamO))GDPKHPKSF-OH; C-terminus assumed) |  | 100 | Poor | 
CCCCCCCCCCCCCCCC(=O)OCC(CSC[C@H](N)C(=O)NCC(=O)N[C@@H](CCC(=O)O)C(=O)N[C@H](C(=O)N[C@@H](CC(=O)O)C(=O)N[C@@H](CCCCN)C(=O)N[C@@H](CCC(=O)O)C(=O)NCC(=O)N[C@@H](CCCCN)C(=O)N[C@H](C(=O)N[C@H](C(=O)N[C@@H](CCCNC(=N)N)C(=O)N[C@H](C(=O)N[C@@H](Cc1ccccc1)C(=O)N[C@@H](CC(=O)O)C(=O)N[C@@H](CC(N)=O)C(=O)N[C@@H](CO)C(=O)N[C@@H](Cc1ccccc1)C(=O)O)[C@@H](C)CC)[C@@H](C)CC)[C@@H](C)CC)[C@@H](C)O)OC(=O)CCCCCCCCCCCCCCC (stereo partly shown) [CBLB611] (H-C(X1)GETDKEGKIIRIFDNSF-OH) |  | 0 |  | 
